Assay results as given in patent US4271155A, “Water soluble hydrazones of 3-formylrifamycin SV, antibacterial compositions thereof and method of use thereof” (Gruppo Lepetit S.p.A., priority 1979, dated 1981).
Read-outs that look alike come from different tables or passages of the source.

Columns and labels:
[1] = solubility in water / aqueous vehicles; format: physicochemical
Description: The new rifamycins of formula I are in fact completely soluble in water or in mixture of water with other pharmaceutically acceptable solvents mixable with water. Useful solvents which can be admixed with water are for instance the polyhydric aliphatic alcohols such as ethylene glycol, propylene glycol, glycerine and mixtures thereof. These solutions can be added with buffers to maintain the pH range at a physiological value. For instance, ten grams of the compound of formula I wherein R is methyl, X is [drawing 3] are completely soluble in 100 ml of water buffered at pH 7.38 (phosphate buffer). The corresponding compound wherein A and B are both the sodium cation is even more soluble; in fact 100 ml of water can dissolve about fifty grams of said compound.

Escherichia coli = assay: ED50 in mice infected with Escherichia coli; format: in vivo; conditions: sc, read-out: ED50, E. coli
Description: (§1) The values of the ED50 of the compounds of examples 2, 3 and 4 against the two microbial strains and the toxicity (LD50) of the compounds are reported in the following Table

toxicity (LD50) in mice = conditions: mouse, in vivo
Description: as §1

[2] = tested on: Staphylococcus aureus Tour; assay: ED50 in mice infected with Staphylococcus aureus Tour; format: in vivo; conditions: sc
Description: as §1

[3] = ip, read-out: LD50 in mice, i.p.
[4] = iv, read-out: LD50 in mice, i.v.

| Structure (SMILES) | completely soluble in 100 ml of water ([1]; per 100 ml of water buffered at pH 7.38 (phosphate buffer)) | amount that 100 ml of water can dissolve ([1]; per 100 ml of water, A and B both sodium cation) | ED50 (Escherichia coli) [mg/kg] | LD50 (toxicity (LD50) in mice; [3]) [mg/kg] | LD50 (toxicity (LD50) in mice; [4]) [mg/kg] | ED50 [2] [mg/kg] |
| --- | --- | --- | --- | --- | --- | --- |
| COC1C=COC2(C)Oc3c(C)c(O)c4c(O)c(c(C=NN(C)CC(C)OP(=O)(O)O)c(O)c4c3C2=O)NC(=O)C(C)=CC=CC(C)C(O)C(C)C(O)C(C)C(OC(C)=O)C1C (centres unmarked) [listing 1 of 2 here] | ten | – | – | – | – | – |
| COC1C=COC2(C)Oc3c(C)c(O)c4c(O)c(c(C=NN(C)CC(C)OP(=O)(O)O)c(O)c4c3C2=O)NC(=O)C(C)=CC=CC(C)C(O)C(C)C(O)C(C)C(OC(C)=O)C1C (centres unmarked) [listing 2 of 2 here] | – | about fifty | – | – | – | – |
| COC1C=COC2(C)Oc3c(C)c(O)c4c(O)c(c(C=NN(C)CC(C)OP(=O)(O)O)c(O)c4c3C2=O)NC(=O)C(C)=CC=CC(C)C(O)C(C)C(O)C(C)C(OC(C)=O)C1C (centres unmarked) [Example 2, 3-[[[2-(Phosphonoxy)propyl]methylhydrazino]methyl]rifamycin SV] | – | – | 98.5 | 770 | 665 | 0.812 |
| CCC(CN(C)N=Cc1c2c(O)c3c(O)c(C)c4c(c3c1O)C(=O)C(C)(OC=CC(OC)C(C)C(OC(C)=O)C(C)C(O)C(C)C(O)C(C)C=CC=C(C)C(=O)N2)O4)OP(=O)(O)O (centres unmarked) [Example 3, 3-[[[2-(Phosphonoxy)butyl]methylhydrazono]methyl]rifamycin SV] | – | – | 130 | > 500 | 525 | 0.812 |
| COC1C=COC2(C)Oc3c(C)c(O)c4c(O)c(c(C=NN(C)CCOP(=O)(O)O)c(O)c4c3C2=O)NC(=O)C(C)=CC=CC(C)C(O)C(C)C(O)C(C)C(OC(C)=O)C1C (centres unmarked) [Example 4, 3-[[[2-(Phosphonoxy)ethyl]methylhydrazono]methyl]rifamycin SV] | – | – | 106 | 592 | 507 | 1.51 |
